This passage reports Ki results from patent US20100273780A1, “SUBSTITUTED 8-HETEROARYL XANTHINES” (PGXHEALTH, LLC, priority 2003, published 2010).

This test has as its target T1, rat A2B receptors (rA2B) (Rattus norvegicus, UniProt P29276).
T1 construct: expressed in transfected cells; host or cells: HEK-293 cells, stably transfected (G418 selection); membranes
T1 sequence (P29276 1-332): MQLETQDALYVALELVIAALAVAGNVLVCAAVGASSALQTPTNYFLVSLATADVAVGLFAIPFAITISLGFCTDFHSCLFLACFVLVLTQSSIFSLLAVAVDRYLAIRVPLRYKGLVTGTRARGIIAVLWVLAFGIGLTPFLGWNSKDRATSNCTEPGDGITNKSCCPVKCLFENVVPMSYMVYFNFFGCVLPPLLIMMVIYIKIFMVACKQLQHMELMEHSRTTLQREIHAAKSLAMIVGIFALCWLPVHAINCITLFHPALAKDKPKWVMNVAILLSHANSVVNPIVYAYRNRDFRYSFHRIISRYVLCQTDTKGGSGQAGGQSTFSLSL
The test can be described thus: Radioligand competition binding (125I-ABOPX) at rat A2B receptors in HEK-293 membranes. Conditions: displacement of specific [125I]ABOPX binding at rat A2B receptors expressed in HEK-293 cells; read-out: RatA2B Ki. Here is the method:
The plasmid was amplified in competent JM109 cells and plasmid DNA isolated using Wizard Megaprep columns (Promega Corporation, Madison, Wis.).
Transfected HEK cells were grown under 5% CO2/[…] humidified atmosphere at a temperature of 37° C. Colonies were selected by growth of cells in 0.6 mg/mL G418. Transfected cells were maintained in DMEM supplemented with Hams F12 nutrient mixture (1/1), 10% newborn calf serum, 2 mM glutamine and containing 50 IU/mL penicillin, […], and 0.2 mg/mL Geneticin (G418, Boehringer Mannheim). Cells were cultured in 10 cm diameter round plates and subcultured when grown confluent (approximately after 72 hours).
At A2B receptors: Confluent monolayers of HEK-A2B cells were washed with PBS followed by ice cold Buffer A (10 mM HEPES, 10 mM EDTA, pH 7.4) with protease inhibitors (10 μg/mL benzamidine, 100 μM phenylmethanesulfonyl fluoride, and 2 μg/mL of each aprotinin, pepstatin and leupeptin). The cells were homogenized in a Polytron (Brinkmann) for 20 s, centrifuged at 30,000×g, and the pellets washed twice with buffer HE (10 mM HEPES, 1 mM EDTA, pH 7.4 with protease inhibitors). The final pellet was resuspended in buffer HE, supplemented with 10% sucrose and frozen in aliquots at −80° C. For binding assays membranes were thawed and diluted 5-10 fold with HE to a final protein concentration of approximately 1 mg/mL. To determine protein concentrations, membranes, and bovine serum albumin standards were dissolved in 0.2% NaOH/0.01% SDS and protein determined using fluorescamine fluorescence. Stowell, C.
After incubation, 20 minutes at room temperature, 50 μL, of 10 mg/mL Na-metabisulfite in water was added to quench the reaction. The reaction mixture was applied to a C18 HPLC column, eluting with a mixture of methanol and 5 mM phosphate, pH 6.0. After 5 min at 35% methanol, the methanol concentration was ramped to 100% over 15 min.
Radioligand binding experiments were performed in triplicate with 20-25 μg membrane protein in a total volume of 0.1 mL HE buffer supplemented with 1 U/mL adenosine deaminase and 5 mM MgCl2. The incubation time was 3 h at 21° C. Nonspecific binding was measured in the presence of 100 μM NECA. […] Membranes were filtered on Whatman GF/C filters using a Brandel cell harvester (Gaithersburg, Md.) and washed 3 times over 15-20 seconds with ice cold buffer (10 mM Tris, 1 mM MgCl2, pH 7.4). Bmax and KD values were calculated by Marquardt's nonlinear least squares interpolation for single a site binding models. Marquardt, D. M., J. Soc. Indust. Appl. […] Ki values for different compounds were derived from IC50 values as described. Linden, J., J. Cycl. Nucl. […] Data from replicate experiments are tabulated as means±SEM.
In general terms: Displacement assays read how much labelled ligand stays bound in the presence of the test substance.
`CCCn1c(=O)c2[nH]c(-c3ccc(NC(C)CO)nc3)nc2n(CCC)c1=O` (stereo not drawn) [Compound 15, 1,3-Dipropyl-8-[6-(1-hydroxy-2-propyl)amino-3-pyridyl]xanthine]: the Ki (in general, the dissociation constant of the complex between target and ligand, obtained from inhibition or displacement) was under 100 nM.

Turning to `CCCn1c(=O)c2[nH]c(-c3ccc(NCC(OC)OC)nc3)nc2n(CCC)c1=O` [Compound 14, 1,3-Dipropyl-8-[6-(2,2-dimethoxyethyl)amino-3-pyridyl]xanthine], the Ki was under 500 nM.

`CCn1c(=O)c2[nH]c(-c3ccc(NCc4cccc(OC)c4)nc3)nc2n(CC)c1=O` [Compound 75, 1,3-Diethyl-8-[6-(3-methoxybenzylamino)-3-pyridyl]xanthine]: the Ki was under 100 nM.

For `CCCn1c(=O)c2[nH]c(-c3ccc(Cl)nc3)nc2n(CCC)c1=O` [Compound 1, 1,3-Dipropyl-8-(6-chloro-3-pyridyl)xanthine], the Ki was under 500 nM.

Turning to `CCCn1c(=O)c2[nH]c(-c3ccc(NCCc4ccccn4)nc3)nc2n(CCC)c1=O` [Compound 78, 1,3-Dipropyl-8-[6-[2-(2-pyridyl)-ethylamino]-3-pyridyl]xanthine], the Ki was under 100 nM.

For the molecule `CN(C(=O)c1cccnc1)c1ccc(-c2nc3c([nH]2)c(=O)n(CC2CC2)c(=O)n3CC2CC2)cn1` [Compound 69, 1,3-Dicylopropylmethyl-8-[6-[N-nicotinoylmethylamino]-3-pyridyl)xanthine], the Ki was under 500 nM.

Consider `CCCn1c(=O)c2[nH]c(-c3ccc(N4CCN(C(C)=O)CC4)nc3)nc2n(CCC)c1=O` [Compound 5, 1,3-Dipropyl-8-[6-(4-acetylpiperazinyl)-3-pyridyl]xanthine], for which the Ki was under 500 nM.

Take “1,3-diallyl-8-[6-(N-(6-chloronicotinoyl)methylamino)-3-pyridyl]xanthine [Compound 120]”: the Ki was under 100 nM.

Turning to `CCN(C(=O)c1cccnc1)c1ccc(-c2nc3c([nH]2)c(=O)n(CC2CC2)c(=O)n3CC2CC2)cn1` [Compound 70, 1,3-Dicylopropylmethyl-8-[6-[N-nicotinoylethylamino]-3-pyridyl)xanthine], the inhibitory constant (Ki) is under 500 nM.

For the molecule `CCn1c(=O)c2[nH]c(-c3ccc(NCc4cccnc4)nc3)nc2n(CC)c1=O` [Compound 74, 1,3-Diethyl-8-[6-(3-pyridylmethylamino)-3-pyridyl]xanthine], the Ki is under 100 nM.

In the case of `CCCn1c(=O)c2[nH]c(-c3ccc(NCCOCCO)nc3)nc2n(CCC)c1=O` [Compound 18, 1,3-Dipropyl-8-[[6-(2-hydroxyethoxy)ethylamino]-3-pyridy]xanthine], the Ki was under 500 nM.

Consider `CCn1c(=O)c2[nH]c(-c3ccc(NCCN4CCCC4)nc3)nc2n(CC)c1=O` [Compound 81, 1,3-Diethyl-8-[6-[2-(1-pyrrolidinyl)-ethylamino]-3-pyridyl]xanthine], for which the Ki was under 100 nM.

Regarding “1,3-Diethyl-8-[6-[(N-phenylcarbamoyl)methylamino]-3-pyridyl)xanthine [Compound 61]”, the Ki was under 5000 nM.

Consider `CCCn1c(=O)c2[nH]c(-c3ccc(NC4CCCC4)nc3)nc2n(CCC)c1=O` [Compound 39, 1,3-Dipropyl-8-[6-(cyclopentylamino)-3-pyridyl]xanthine], for which the Ki is under 5000 nM.

As for `CCCn1c(=O)c2[nH]c(-c3ccc(Cl)nc3)nc2n(CCc2ccc(OC)cc2)c1=O` [Compound 54, 1-propyl-3-(4-methoxyphenyl)ethyl-8-(6-chloro-3-pyridyl)xanthine], the Ki was under 5000 nM.

Take `CCCn1c(=O)c2[nH]c(-c3ccc(N4CCNCC4)nc3)nc2n(CCC)c1=O` [Compound 19, 1,3-Dipropyl-8-(6-piperazino-3-pyridyl)xanthine]: the Ki was under 500 nM.

`CNc1ccc(-c2nc3c([nH]2)c(=O)n(C)c(=O)n3C)cn1` [Compound 97, 1,3-Dimethyl-8-(6-methylamino-3-pyridyl)xanthine]: the Ki was under 500 nM.

Consider `CCn1c(=O)c2[nH]c(-c3ccc(NCc4ccccn4)nc3)nc2n(CC)c1=O` [Compound 73, 1,3-Diethyl-8-[6-(2-pyridylmethylamino)-3-pyridyl]xanthine], for which the inhibition constant Ki is under 100 nM.
